Experimental data from patent US20130259884A1, “PEPTIDES” ([…] SL, priority 2010, published 2013).
Where a SMILES comes first, the peptide text is derived from it.

Test: Water solubility of peptides when preparing stock solutions
Type: physicochemical
Settings: stock solution in sterile distilled water or 100% DMSO; read-out: solubility of peptide (water soluble or water insoluble, dissolved in DMSO)
Procedure: For challenge, peptides were administered as follows: • Individual peptides (soluble). Individual water soluble peptides were dissolved as 10, 5 or 2.5 mg/ml stock solutions in sterile distilled water. Before use, each peptide was diluted in water to 2 mg/ml and 10 μl of this 2 mg/ml mix was added to 990 μl of media. Then 100 μl of this peptide/media mix was added to 100 μl of media containing 350,000 PBMC in an ELISPOT anti-IL-4 coated cell culture plate well for a final peptide concentration of 10 μg/ml. Identically diluted media only was added to the cells and used for the no peptide media control wells (media only). • Individual peptides (DMSO). Individual water insoluble peptides were dissolved in 100% DMSO to a stock concentration of 50 mg/ml. Before use each peptide was diluted in water to 2 mg/ml and then 10 μl of the 2 mg/ml mix was added to 990 μl of cell-culture media. Then 100 μl of this peptide/media mix was added to 100 μl of media containing 350,000 PBMC in an ELISPOT anti-IL-4 coated cell culture plate well for a final peptide concentration of 10 μg/ml. Identically diluted media only was added to the cells and used for the no peptide media control wells (media only). • A combination preparation containing Alt a 1 soluble peptides (33.2, 34.3, 35.4, 35.5, 37.3.1, 37.4.1, L6-5.01, L10-1.01, L10-2.01, L10-3), called Alt a 1 Sol. Each peptide was diluted from water stock to 2 mg/ml in sterile distilled water. Then 10 μl of each peptide required for the combined preparation was mixed and brought up to 1 ml in media. Then 100 μl of this peptide/media mix was added to 100 μl of media containing 350,000 PBMC in an ELISPOT anti-IL-4 coated cell culture plate well for a final concentration of each peptide of 10 μg/ml. Identically diluted media only was used for the no peptide control wells (media only). • A combination preparation containing Alt a 1 DMSO peptides (32.2.1, 38.2.1, 35.2, 35.3, L6-2, L6-3, L6-4, 38.3, 37.2), called Alt a 1 DMSO. Each peptide was diluted from DMSO stock to 2 mg/ml in sterile distilled water. Then 10 μl of each peptide required for the combined preparation was mixed and brought up to 1 ml in media. Then 100 μl of this peptide/media mix is added to 100 μl of media containing 350,000 PBMC in an ELISPOT anti-IL-4 coated cell culture plate well for a final concentration of each peptide of 10 μg/ml. Identically diluted media only was used for the no peptide control wells (media only). • A combination preparation containing non-Alt a 1 soluble peptides (40.2, 41.2, 43.2, 44.2, 46.2, 47.2.1, 56.2, 57.2.1, 60.2, 62.2.1, 67.2, 71.3), called Alt a Other Sol. Each peptide was diluted from water stock to 2 mg/ml in sterile distilled water. Then 10 μl of each peptide required for the combined preparation was mixed and brought up to 1 ml in media, Then 100 μl of this peptide/media mix was added to 100 μl of media containing 350,000 PBMC in an ELISPOT anti-IL-4 coated cell culture plate well for a final concentration of each peptide at 10 μg/ml. Identically diluted media only was used for the no peptide control wells (media only). • A combination preparation containing non-Alt a 1 DMSO peptides (39.2, 42.2, 45.2, 48.2.1, 50.2, 51.2.1, 61.2.1, 66.3.1, 68.2.1, 70.2, 71.2, 72.2), called Alt a Other DMSO. Each peptide was diluted from DMSO stock to 2 mg/ml in sterile distilled water. Then 10 ul of each peptide required for the combined preparation was mixed and brought up to 1 ml in media, Then 100 μl of this peptide/media mix was added to 100 μl of media containing 350,000 PBMC in an ELISPOT anti-IL-4 coated cell culture plate well for a final concentration of each peptide at 10 μg/ml. Identically diluted media only was used for the no peptide control wells (media only).

Going from `CC(C)C[C@H](NC(=O)[C@H](Cc1ccccc1)NC(=O)[C@H](CO)NC(=O)[C@H](CC(N)=O)NC(=O)[C@H](CCC(=O)O)NC(=O)CNC(=O)[C@@H](NC(=O)[C@H](CO)NC(=O)[C@H](Cc1ccc(O)cc1)NC(=O)[C@H](Cc1c[nH]c2ccccc12)NC(=O)[C@H](CCCCN)NC(=O)[C@H](Cc1c[nH]cn1)NC(=O)[C@@H](N)CC(=O)O)C(C)C)C(=O)N[C@@H](CC(=O)O)C(=O)N[C@@H](Cc1ccccc1)C(=O)O` [Peptide L10-2.01, DHKWYSVGENSFLDF] (H-DHKWYSVGENSFLDF-OH) to `CC[C@H](C)[C@H](NC(=O)[C@H](Cc1ccccc1)NC(=O)[C@H](Cc1ccc(O)cc1)NC(=O)CNC(=O)[C@H](CCCCN)NC(=O)[C@@H](N)CC(=O)O)C(=O)N[C@@H](CCC(=O)O)C(=O)N1CCC[C@H]1C(=O)N[C@H](C(=O)N[C@H](C(=O)N[C@@H](Cc1ccccc1)C(=O)N[C@@H](CO)C(=O)N[C@@H](CC(N)=O)C(=O)N[C@H](C(=O)N[C@H](C(=O)O)[C@@H](C)O)C(C)C)[C@@H](C)CC)[C@@H](C)O` [Peptide 70.2, DKGYFIEPTIFSNVT] (H-DKGYFIEPTIFSNVT-OH; N-terminus and C-terminus assumed), the solubility falls from > 2500 µg/mL to < 2500 µg/mL.

Going from `CC(C)C[C@H](N)C(=O)N1CCC[C@H]1C(=O)N[C@@H](CC(N)=O)C(=O)N[C@@H](Cc1ccc(O)cc1)C(=O)N[C@H](C(=O)N[C@@H](CCCNC(=N)N)C(=O)N[C@@H](C)C(=O)NCC(=O)NCC(=O)N[C@@H](CC(N)=O)C(=O)NCC(=O)N1CCC[C@H]1C(=O)N[C@@H](CCCCN)C(=O)N[C@@H](CC(=O)O)C(=O)N[C@@H](Cc1ccccc1)C(=O)O)C(C)C` [Peptide L6-5.01, LPNYVRAGGNGPKDF] (H-LPNYVRAGGNGPKDF-OH) to `CC[C@H](C)[C@H](NC(=O)[C@H](CC(N)=O)NC(=O)[C@H](Cc1ccccc1)NC(=O)CNC(=O)[C@H](CC(C)C)NC(=O)[C@H](CO)NC(=O)[C@H](CC(N)=O)NC(=O)[C@@H](N)Cc1ccc(O)cc1)C(=O)N[C@@H](CCCCN)C(=O)N[C@@H](C)C(=O)N[C@H](C(=O)N[C@@H](CC(N)=O)C(=O)NCC(=O)NCC(=O)N[C@H](C(=O)O)[C@@H](C)O)[C@@H](C)O` [Peptide 35.3, YNSLGFNIKATNGGT] (H-YNSLGFNIKATNGGT-OH), the solubility falls from > 2500 µg/mL to < 2500 µg/mL.

Going from `CC[C@H](C)[C@H](NC(=O)[C@H](CO)NC(=O)[C@@H](NC(=O)[C@@H](NC(=O)[C@H](CCCCN)NC(=O)[C@@H](NC(=O)[C@H](CCC(N)=O)NC(=O)[C@@H](NC(=O)[C@H](Cc1ccc(O)cc1)NC(=O)[C@H](CC(N)=O)NC(=O)[C@H](CC(=O)O)NC(=O)[C@@H](N)CC(C)C)[C@@H](C)CC)[C@@H](C)O)[C@@H](C)O)C(C)C)C(=O)N[C@@H](CCCNC(=N)N)C(=O)N[C@@H](CC(C)C)C(=O)NCC(=O)O` [Peptide 71.2, LDNYIQTKTVSIRLG] (H-LDNYIQTKTVSIRLG-OH) to `CC[C@H](C)[C@H](NC(=O)[C@H](CO)NC(=O)[C@@H](NC(=O)[C@@H](NC(=O)[C@H](CCCCN)NC(=O)[C@@H](NC(=O)[C@@H](N)CCC(N)=O)[C@@H](C)O)[C@@H](C)O)C(C)C)C(=O)N[C@@H](CCCNC(=N)N)C(=O)N[C@@H](CC(C)C)C(=O)NCC(=O)N[C@@H](CC(=O)O)C(=O)N[C@H](C(=O)N[C@@H](CC(C)C)C(=O)N[C@@H](Cc1ccccc1)C(=O)NCC(=O)O)C(C)C` [Peptide 71.3, QTKTVSIRLGDVLFG] (H-QTKTVSIRLGDVLFG-OH), the solubility rises from < 2500 µg/mL to > 2500 µg/mL.

`CC[C@H](C)[C@H](NC(=O)[C@H](CC(=O)O)NC(=O)[C@H](CC(=O)O)NC(=O)[C@@H](N)CO)C(=O)N[C@H](C(=O)N[C@@H](Cc1ccc(O)cc1)C(=O)N[C@H](C(=O)N[C@@H](C)C(=O)N[C@H](C(=O)N[C@@H](C)C(=O)N[C@H](C(=O)N[C@@H](CC(C)C)C(=O)N1CCC[C@H]1C(=O)N[C@@H](CC(N)=O)C(=O)N[C@@H](Cc1ccc(O)cc1)C(=O)O)[C@@H](C)O)[C@@H](C)O)C(C)C)[C@@H](C)O` [Peptide 37.2, SDDITYVATATLPNY] (H-SDDITYVATATLPNY-OH) and `CC[C@H](C)[C@H](NC(=O)[C@H](Cc1ccc(O)cc1)NC(=O)[C@H](C)NC(=O)[C@H](CC(=O)O)NC(=O)[C@H](C)NC(=O)[C@@H](NC(=O)CNC(=O)[C@H](CCC(N)=O)NC(=O)[C@@H](NC(=O)[C@@H](NC(=O)[C@H](Cc1ccccc1)NC(=O)[C@H](CC(=O)O)NC(=O)[C@H](CCCCN)NC(=O)[C@@H]1CCCN1)C(C)C)C(C)C)C(C)C)C(=O)N[C@H](C(=O)O)[C@@H](C)O` [Peptide 38.2.1, PKDFVVQGVADAYIT] (H-PKDFVVQGVADAYIT-OH) cannot be ordered by solubility: < 2500 µg/mL for the first, < 2500 µg/mL for the second.

Compared with `CC(C)C[C@H](NC(=O)[C@H](C)NC(=O)[C@@H](NC(=O)[C@H](CCC(N)=O)NC(=O)[C@H](CC(N)=O)NC(=O)[C@@H](N)CCCCN)C(C)C)C(=O)N[C@@H](CC(N)=O)C(=O)N1CCC[C@H]1C(=O)N[C@H](C(=O)N[C@@H](CC(N)=O)C(=O)N[C@H](C(=O)N[C@H](C(=O)N[C@@H](Cc1ccccc1)C(=O)N[C@@H](CC(=O)O)C(=O)N[C@@H](C)C(=O)O)C(C)C)[C@@H](C)O)C(C)C` [Peptide 51.2.1, KNQVALNPVNTVFDA] (H-KNQVALNPVNTVFDA-OH), `CC[C@H](C)[C@H](NC(=O)[C@@H](NC(=O)[C@@H](NC(=O)[C@H](CCCCN)NC(=O)CNC(=O)[C@@H](N)CCCCN)C(C)C)C(C)C)C(=O)N[C@H](C(=O)N[C@H](C(=O)NCC(=O)N[C@@H](C)C(=O)N[C@@H](CO)C(=O)NCC(=O)N1CCC[C@H]1C(=O)N[C@H](C(=O)NCC(=O)O)[C@@H](C)O)[C@@H](C)O)C(C)C` [Peptide 46.2, KGKVVIVTGASGPTG] (H-KGKVVIVTGASGPTG-OH) is higher in solubility: < 2500 µg/mL for the first, > 2500 µg/mL for the second.

Compared with `CC[C@H](C)[C@H](N)C(=O)N[C@@H](C)C(=O)N[C@@H](CO)C(=O)N[C@@H](CC(C)C)C(=O)N[C@@H](Cc1ccccc1)C(=O)N[C@@H](C)C(=O)N[C@@H](C)C(=O)N[C@@H](C)C(=O)NCC(=O)N[C@@H](CC(C)C)C(=O)N[C@@H](C)C(=O)N[C@@H](C)C(=O)N[C@@H](C)C(=O)N[C@@H](C)C(=O)N1CCC[C@H]1C(=O)O` [Peptide L6-2, IASLFAAAGLAAAAP], `CC(C)C[C@H](NC(=O)CNC(=O)[C@H](CC(C)C)NC(=O)[C@H](CC(C)C)NC(=O)[C@H](CC(C)C)NC(=O)[C@H](Cc1ccc(O)cc1)NC(=O)[C@H](C)NC(=O)[C@H](C)NC(=O)[C@H](CC(C)C)NC(=O)[C@H](Cc1c[nH]cn1)NC(=O)[C@H](CCCCN)NC(=O)[C@@H](N)CC(C)C)C(=O)NCC(=O)NCC(=O)N[C@@H](CC(N)=O)C(=O)O` [Peptide 57.2.1, LKHLAAYLLLGLGGN] (H-LKHLAAYLLLGLGGN-OH) is higher in solubility: < 2500 µg/mL for the first, > 2500 µg/mL for the second.

For `CC(C)[C@H](NC(=O)[C@H](Cc1ccc(O)cc1)NC(=O)[C@H](CO)NC(=O)[C@H](CO)NC(=O)[C@H](C)NC(=O)[C@H](CC(=O)O)NC(=O)[C@H](CO)NC(=O)[C@H](C)NC(=O)[C@H](Cc1ccccc1)NC(=O)[C@H](Cc1ccc(O)cc1)NC(=O)[C@@H](NC(=O)[C@H](Cc1ccc(O)cc1)NC(=O)[C@H](C)NC(=O)CNC(=O)[C@@H](N)CCCCN)C(C)C)C(=O)O` [Peptide 68.2.1, KGAYVYFASDASSYV] (H-KGAYVYFASDASSYV-OH), the solubility was < 2500 µg/mL.
